{
  "source": "patent US20240115575A1",
  "about": "“PHARMACEUTICAL COMPOSITION OF MULTI-TARGET PROTEIN KINASE INHIBITORS, AND USE THEREOF” (CSPC Zhongqi Pharmaceutical Technology (Shijiazhuang) Co., …, priority 2020, published 2024)",
  "key": {"[1]": {"experiment": "API-excipient compatibility test", "format": "physicochemical", "details": "14 days and 28 or 30 days; illumination, 60° C., high humidity; maximum single impurity, total impurity, color", "description": "The active ingredient (compound of Formula B) was mixed evenly with various excipients mentioned in the present application respectively, and put in 10-ml injection vials. The injection vials were stored for 14 days and 28 days or 30 days under the conditions of an illumination of 4500 lux±500 lux/peripheral humidity, a high temperature of 60° C.±2° C./peripheral humidity, a high humidity of 90%±5% RH, and a temperature of 25° C.±2° C. respectively to detect the impurity content, so as to test the compatibility of the active ingredient with various excipients."}, "[2]": {"system": "MV4-11 (FLT3-ITD mutation) subcutaneous tumor", "experiment": "In-vivo anti-tumor test, MV4-11 subcutaneous tumor model", "details": "orally administered once daily for 21 days", "description": "(§1) According to the in-vivo anti-tumor test described under Biological Assessment of the Patent Application No. WO 2011/147066, the samples of the salt obtained in Preparation Example 2 were tested (specifically for FLT3-ITD acute myeloid leukemia, non-small cell lung cancer with EGFR activating mutation, and Ph-positive chronic myeloid leukemia, respectively)."}, "[3]": {"system": "human non-small cell lung cancer HCC827", "experiment": "In-vivo anti-tumor test, non-small cell lung cancer model", "details": "orally administered once daily for 30 days", "description": "as §1"}, "c-KIT": {"target": "c-KIT (Homo sapiens, UniProt P10721)", "sequence (P10721 26-976)": "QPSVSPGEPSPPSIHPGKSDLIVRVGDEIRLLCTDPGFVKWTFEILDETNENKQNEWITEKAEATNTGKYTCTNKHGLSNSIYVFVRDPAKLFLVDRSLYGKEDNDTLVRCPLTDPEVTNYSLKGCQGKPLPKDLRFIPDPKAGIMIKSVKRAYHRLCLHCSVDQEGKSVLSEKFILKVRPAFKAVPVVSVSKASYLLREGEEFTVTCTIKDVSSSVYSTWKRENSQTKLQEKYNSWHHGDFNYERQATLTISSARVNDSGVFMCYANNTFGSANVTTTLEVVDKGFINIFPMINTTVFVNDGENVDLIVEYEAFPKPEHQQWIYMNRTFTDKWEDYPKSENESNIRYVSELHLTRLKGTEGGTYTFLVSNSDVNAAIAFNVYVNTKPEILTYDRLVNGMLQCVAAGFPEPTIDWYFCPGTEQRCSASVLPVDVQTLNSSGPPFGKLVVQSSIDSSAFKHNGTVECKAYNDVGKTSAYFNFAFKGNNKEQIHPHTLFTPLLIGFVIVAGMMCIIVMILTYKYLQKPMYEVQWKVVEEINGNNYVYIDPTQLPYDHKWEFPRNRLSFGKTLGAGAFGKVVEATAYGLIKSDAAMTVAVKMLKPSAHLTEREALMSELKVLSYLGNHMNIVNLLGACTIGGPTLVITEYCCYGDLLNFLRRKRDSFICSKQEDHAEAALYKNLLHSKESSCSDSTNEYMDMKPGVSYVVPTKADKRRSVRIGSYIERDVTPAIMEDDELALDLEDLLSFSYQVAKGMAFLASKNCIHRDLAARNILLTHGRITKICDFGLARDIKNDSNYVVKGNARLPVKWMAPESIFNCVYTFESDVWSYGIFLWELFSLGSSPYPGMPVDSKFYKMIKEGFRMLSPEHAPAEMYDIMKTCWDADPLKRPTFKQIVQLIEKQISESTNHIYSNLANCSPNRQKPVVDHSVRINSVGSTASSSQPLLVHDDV", "experiment": "Evaluation of the inhibitory activity of kinase", "format": "biochemical", "description": "(§2) The samples of the salt obtained in Preparation Example 2 were tested according to the evaluation of the inhibitory activity of kinase described under Biological Assessment of the Patent Application No. WO 2011/147066."}, "VEGFR2": {"target": "VEGFR2 (Homo sapiens, UniProt P35968)", "sequence (P35968 20-1356)": "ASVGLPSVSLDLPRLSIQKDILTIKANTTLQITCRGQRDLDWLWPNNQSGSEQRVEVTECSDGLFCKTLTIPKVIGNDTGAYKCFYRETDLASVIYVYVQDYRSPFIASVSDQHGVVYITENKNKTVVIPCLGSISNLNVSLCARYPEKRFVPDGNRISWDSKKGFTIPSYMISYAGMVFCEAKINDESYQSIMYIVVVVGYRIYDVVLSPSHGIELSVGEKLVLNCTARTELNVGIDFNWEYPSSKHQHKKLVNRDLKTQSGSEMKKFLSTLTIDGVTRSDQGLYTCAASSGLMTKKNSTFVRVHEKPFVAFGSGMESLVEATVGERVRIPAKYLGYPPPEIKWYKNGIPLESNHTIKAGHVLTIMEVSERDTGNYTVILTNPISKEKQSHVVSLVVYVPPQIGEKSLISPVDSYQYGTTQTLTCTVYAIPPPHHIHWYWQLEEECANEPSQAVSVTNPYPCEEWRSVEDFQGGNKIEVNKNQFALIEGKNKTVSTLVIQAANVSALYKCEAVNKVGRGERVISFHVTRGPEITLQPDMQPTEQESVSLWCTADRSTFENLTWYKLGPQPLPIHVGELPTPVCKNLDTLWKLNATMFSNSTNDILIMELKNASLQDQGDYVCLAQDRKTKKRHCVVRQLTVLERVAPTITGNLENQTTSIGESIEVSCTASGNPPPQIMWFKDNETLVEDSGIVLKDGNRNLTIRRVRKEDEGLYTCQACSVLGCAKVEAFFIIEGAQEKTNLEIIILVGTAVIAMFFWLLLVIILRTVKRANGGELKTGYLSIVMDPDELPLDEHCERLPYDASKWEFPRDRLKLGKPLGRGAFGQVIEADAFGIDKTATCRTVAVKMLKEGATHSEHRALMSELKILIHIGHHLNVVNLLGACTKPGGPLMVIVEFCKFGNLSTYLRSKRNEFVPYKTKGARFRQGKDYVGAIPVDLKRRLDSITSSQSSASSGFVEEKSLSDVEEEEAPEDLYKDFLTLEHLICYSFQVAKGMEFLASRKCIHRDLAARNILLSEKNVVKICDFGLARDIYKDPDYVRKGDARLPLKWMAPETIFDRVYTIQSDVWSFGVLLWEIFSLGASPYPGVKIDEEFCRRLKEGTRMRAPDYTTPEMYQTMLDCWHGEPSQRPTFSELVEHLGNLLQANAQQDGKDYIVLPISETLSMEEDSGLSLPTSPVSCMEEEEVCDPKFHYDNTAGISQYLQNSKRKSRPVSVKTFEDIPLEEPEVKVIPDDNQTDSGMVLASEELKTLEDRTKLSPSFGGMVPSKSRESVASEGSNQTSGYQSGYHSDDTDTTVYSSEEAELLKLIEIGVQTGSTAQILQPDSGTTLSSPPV", "experiment": "Evaluation of the inhibitory activity of kinase", "format": "biochemical", "description": "as §2"}, "ALK": {"target": "ALK (Homo sapiens, UniProt Q9UM73)", "sequence (Q9UM73 19-1620)": "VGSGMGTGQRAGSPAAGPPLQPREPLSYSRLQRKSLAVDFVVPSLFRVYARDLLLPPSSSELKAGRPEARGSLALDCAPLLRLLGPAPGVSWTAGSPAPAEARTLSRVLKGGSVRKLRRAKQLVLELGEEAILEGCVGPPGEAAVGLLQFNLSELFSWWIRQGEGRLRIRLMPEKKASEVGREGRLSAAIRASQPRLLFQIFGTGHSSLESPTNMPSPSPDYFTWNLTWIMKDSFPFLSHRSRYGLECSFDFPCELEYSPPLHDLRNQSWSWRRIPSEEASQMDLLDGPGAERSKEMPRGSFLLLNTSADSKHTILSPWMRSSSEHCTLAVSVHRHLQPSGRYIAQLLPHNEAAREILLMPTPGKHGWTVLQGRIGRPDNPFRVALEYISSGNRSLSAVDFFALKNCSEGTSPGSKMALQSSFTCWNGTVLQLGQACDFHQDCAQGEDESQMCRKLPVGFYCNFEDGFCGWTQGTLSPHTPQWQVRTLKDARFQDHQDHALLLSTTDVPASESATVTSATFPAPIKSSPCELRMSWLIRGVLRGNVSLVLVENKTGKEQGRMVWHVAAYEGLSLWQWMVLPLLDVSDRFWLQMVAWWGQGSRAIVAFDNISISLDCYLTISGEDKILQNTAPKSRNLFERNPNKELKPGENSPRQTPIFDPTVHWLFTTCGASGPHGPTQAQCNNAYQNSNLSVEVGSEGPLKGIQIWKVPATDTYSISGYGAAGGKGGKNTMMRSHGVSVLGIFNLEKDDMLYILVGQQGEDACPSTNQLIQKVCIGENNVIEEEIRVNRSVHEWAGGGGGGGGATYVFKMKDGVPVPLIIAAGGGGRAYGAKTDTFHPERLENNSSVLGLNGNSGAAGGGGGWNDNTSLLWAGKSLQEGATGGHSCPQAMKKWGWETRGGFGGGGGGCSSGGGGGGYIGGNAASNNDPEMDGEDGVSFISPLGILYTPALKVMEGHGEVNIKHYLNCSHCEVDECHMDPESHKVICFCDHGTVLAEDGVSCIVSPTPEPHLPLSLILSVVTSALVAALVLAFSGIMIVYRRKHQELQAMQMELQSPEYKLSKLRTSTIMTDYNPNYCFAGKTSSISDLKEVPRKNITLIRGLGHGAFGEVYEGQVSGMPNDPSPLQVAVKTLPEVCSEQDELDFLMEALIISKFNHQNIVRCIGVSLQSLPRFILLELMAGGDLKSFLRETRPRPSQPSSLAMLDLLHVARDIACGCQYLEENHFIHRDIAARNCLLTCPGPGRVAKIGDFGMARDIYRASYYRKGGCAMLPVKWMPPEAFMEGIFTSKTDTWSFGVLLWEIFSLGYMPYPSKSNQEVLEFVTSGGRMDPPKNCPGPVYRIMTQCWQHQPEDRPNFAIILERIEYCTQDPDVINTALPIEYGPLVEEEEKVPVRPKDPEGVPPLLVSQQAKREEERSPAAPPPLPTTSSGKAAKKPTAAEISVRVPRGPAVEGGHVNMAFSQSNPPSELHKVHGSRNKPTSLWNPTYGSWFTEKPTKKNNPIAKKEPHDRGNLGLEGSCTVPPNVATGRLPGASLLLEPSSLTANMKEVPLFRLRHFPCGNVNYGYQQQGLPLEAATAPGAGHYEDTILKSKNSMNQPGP", "experiment": "Evaluation of the inhibitory activity of kinase", "format": "biochemical", "description": "as §2"}, "BTK": {"target": "BTK (Homo sapiens, UniProt Q06187)", "experiment": "Evaluation of the inhibitory activity of kinase", "format": "biochemical", "description": "as §2"}, "MET": {"target": "MET (Homo sapiens, UniProt P08581)", "experiment": "Evaluation of the inhibitory activity of kinase", "format": "biochemical", "description": "as §2"}, "PDGFRα": {"target": "PDGFRα (Homo sapiens, UniProt P16234)", "sequence (P16234 24-1089)": "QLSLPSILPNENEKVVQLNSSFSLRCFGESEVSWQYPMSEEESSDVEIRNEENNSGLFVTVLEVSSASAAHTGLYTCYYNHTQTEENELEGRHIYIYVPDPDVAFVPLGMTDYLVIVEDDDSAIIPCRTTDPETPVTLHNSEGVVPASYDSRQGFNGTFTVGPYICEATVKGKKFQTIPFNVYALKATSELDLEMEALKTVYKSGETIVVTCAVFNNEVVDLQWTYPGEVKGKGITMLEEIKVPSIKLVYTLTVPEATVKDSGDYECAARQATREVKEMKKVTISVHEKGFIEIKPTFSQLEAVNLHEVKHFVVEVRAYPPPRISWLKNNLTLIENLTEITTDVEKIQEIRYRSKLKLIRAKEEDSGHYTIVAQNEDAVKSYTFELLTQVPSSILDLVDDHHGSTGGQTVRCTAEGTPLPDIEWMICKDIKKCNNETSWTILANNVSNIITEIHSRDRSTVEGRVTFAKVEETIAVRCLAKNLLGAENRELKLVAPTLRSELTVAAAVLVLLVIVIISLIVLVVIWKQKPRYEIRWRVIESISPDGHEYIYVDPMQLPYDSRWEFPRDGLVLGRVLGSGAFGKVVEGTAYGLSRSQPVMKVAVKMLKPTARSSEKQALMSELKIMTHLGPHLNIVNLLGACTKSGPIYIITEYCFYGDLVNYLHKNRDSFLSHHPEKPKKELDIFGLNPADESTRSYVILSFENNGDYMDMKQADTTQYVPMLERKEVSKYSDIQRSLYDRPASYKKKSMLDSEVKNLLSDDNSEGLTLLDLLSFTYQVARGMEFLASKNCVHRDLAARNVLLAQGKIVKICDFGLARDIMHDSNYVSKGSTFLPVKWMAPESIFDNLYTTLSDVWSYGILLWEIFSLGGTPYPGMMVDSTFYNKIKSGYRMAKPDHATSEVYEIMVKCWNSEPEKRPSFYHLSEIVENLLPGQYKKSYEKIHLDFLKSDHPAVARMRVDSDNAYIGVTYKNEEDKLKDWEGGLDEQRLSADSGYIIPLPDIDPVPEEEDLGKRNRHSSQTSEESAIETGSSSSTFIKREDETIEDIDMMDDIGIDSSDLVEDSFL", "experiment": "Evaluation of the inhibitory activity of kinase", "format": "biochemical", "description": "as §2"}},
  "data": [
    {"compound": "CC(C)n1c(Nc2cccnc2)nc2cnc(Nc3ccc(N4CCN(C)CC4)cc3)nc21", "note": "[Preparation Example 2]", "values": [
      {"measurement": "compatibility of the active ingredient with various excipients", "setting": "[1]", "result": "good compatibility"},
      {"measurement": "effect on tumor growth", "setting": "[2]; 5 mg/kg", "result": "completely inhibit the tumor growth"},
      {"measurement": "effect on tumor growth", "setting": "[2]; 10 mg/kg", "result": "complete tumor regression"},
      {"measurement": "effect on tumor growth", "setting": "[2]; 20 mg/kg", "result": "complete tumor regression"},
      {"measurement": "effect on tumor (compared with the initial tumor)", "setting": "[3]; 7.5 mg/kg", "result": "tumor shrinkage"},
      {"measurement": "effect on tumor (compared with the initial tumor)", "setting": "[3]; 15 mg/kg", "result": "tumor shrinkage"},
      {"measurement": "effect on tumor (compared with the initial tumor)", "setting": "[3]; 30 mg/kg", "result": "almost complete tumor regression"},
      {"measurement": "effect on growth of HCC827, dose dependence", "setting": "[3]; 7.5, 15 and 30 mg/kg", "result": "dose-dependently inhibit the growth"},
      {"measurement": "inhibiting the activity of kinase", "setting": "c-KIT", "result": "capable of inhibiting"},
      {"measurement": "inhibiting the activity of kinase", "setting": "VEGFR2", "result": "capable of inhibiting"},
      {"measurement": "inhibiting the activity of kinase", "setting": "ALK", "result": "capable of inhibiting"},
      {"measurement": "inhibiting the activity of kinase", "setting": "BTK", "result": "capable of inhibiting"},
      {"measurement": "inhibiting the activity of kinase", "setting": "MET", "result": "capable of inhibiting"},
      {"measurement": "inhibiting the activity of kinase", "setting": "PDGFRα", "result": "capable of inhibiting"}
    ]}
  ]
}
